These results are taken from EP0180581B2, “DRUG PREPARATIONS OF REDUCED TOXICITY” (THE LIPOSOME COMPANY, INC., priority 1984, dated 1985).

Where two headings read alike, the source gives them in different places.

The subject of series [1] is Swiss Webster mice. Put plainly: Toxicity (lethality) of streptomycin administered with and without ligand, subcutaneous. To be noted: streptomycin 1000 mg/kg subcutaneously, ligand 1:3 molar ratio, mixed immediately prior to administration. It is filed as in vivo.
The nature of series [2]: LD50 of aminoglycoside antibiotics with and without phosphorylcholine, subcutaneous. Format: in vivo. The following applies: mouse, in vivo, sc, mg aminoglycoside antibiotic per kg body weight, Swiss Webster mice, survivors after 24 hours, read-out: LD₅₀. As to the method: (§1) In order to determine the LD₅₀ of the aminoglycoside preparations a quantity of antibiotic was dissolved in 20 m| distilled water with or without phosphorylcholine to achieve a final 1:3 molar ratio of antibiotic to ligand. Then, 0.6 m| aliquots of serial dilutions of the aminoglycoside preparations were injected subcutaneously into Swiss Webster mice (ten animals per group, average weight 23 g each). After 24 hours the number of survivors in each group was determined and the LD₅₀ and 95% confidence limits for each were computed according to the Spearman-Karber Method for Quantal Data (from Finney, 1952, Statistical Method in Biological Assay, Hafner Pub. Co., New York).

Series [3] concerns patients. The following applies: cited from earlier work.
The conditions of series [4]: in vitro; cited from earlier work.
Series [5] has as its system mice. Put plainly: Acute toxicity of streptomycin-ligand preparations, subcutaneous (Table II). Format: in vivo. The following applies: for effectiveness in reducing the toxicity of streptomycin: ligand mixed with streptomycin (1:3 or 1:1 molar ratio), 1000 mg streptomycin per kg subcutaneously in mice.
Series [6] has as its system Swiss Webster mice. Put plainly: LD50 of aminoglycoside antibiotics with and without phosphorylcholine, subcutaneous. Format: in vivo. The following applies: mg aminoglycoside antibiotic per kg body weight, survivors after 24 hours. On the procedure: as §1
For series [7], the system named is C. albicans. The experiment in a line: Minimum inhibitory concentration for C. albicans. To be noted: 50% growth inhibition, overnight at 35° C. Format: cell-based. On the procedure:
The minimum inhibitory concentration (M.I.C.) of the amphotericin B preparations for C. albicans was determined as follows: each of the 5 preparations was serially diluted in a 96 round-bottomed well plate, using 1/2 step dilutions of drug in 50 »| Mico-broth per well and 3 wells for each dilution step. After dilutions were completed, each well received 50 »| broth containing 10³ cells of C. albicans. Plates were incubated overnight at 35° C in a humidified atmosphere.

Series [8] deals with L cells. The experiment in a line: Cloning efficiency of L cells. It is filed as cell-based. As to the method: Plastic petri dishes (35 mm diameter) were seeded with 50 L-cells per dish in 2 m| MEM plus 10% fetal calf serum containing one of the amphotericin B preparations (2 dishes per amphotericin B preparation). The dishes were incubated for 10 days and the cloned cultures were stained with crystal violet as described above.

In series [9] the test system is erythrocytes. Put plainly: Hemolytic effect on erythrocytes (released hemoglobin). Format: cell-based.
The test system of series [10] is L-cells. The experiment in a line: Cytotoxicity for L-cells (50% growth inhibition). To be noted: 72 hours at 37°C.
In series [11] the test system is male Swiss-Webster mice. The following applies: mouse, in vivo, iv, 400 mg/kg. As to the method:
Six male Swiss-Webster mice weighing 27 gms each were given a single intravenous injection of 400 mg/kg PEG-cholesterol.

Series [12] deals with L-cells. To be noted: mouse, 72 h.
The mark [13] stands for this setting: AmB preparations at 25 @g amphotericin B/m| medium, 10 days.

On to `[H]/N=C(/N)N[C@H]1[C@H](O)[C@@H](O)[C@H](O[C@@H]2O[C@@H](C)[C@](O)(C=O)[C@H]2O[C@@H]2O[C@@H](CO)[C@H](O)[C@@H](O)[C@@H]2NC)[C@@H](N/C(N)=N\[H])[C@@H]1O` [Streptomycin, streptomycin], for which, in [1], the “Lethality No. Dead/No. Inoculated” value is listed as 7/8 and the “Percent Lethality” value was determined as 87.5%. Also, in [2], the LD50 at 24 h was 741 mg/kg. In addition, the “patients manifesting some vestibular disturbance” value in series [3] (2g daily for 60 to 120 days) is given as about 75%. In series [3] (dose reduced to 1g daily), the “incidence of vestibular disturbance” value is reported as 25%.
Take `C[C@@H]1[C@H](O)[C@@H](C)/C=C/C=C/C=C/C=C/C=C/C=C/C=C/[C@H](O[C@@H]2O[C@H](C)[C@@H](O)[C@H](N)[C@@H]2O)C[C@@H]2O[C@](O)(C[C@@H](O)C[C@@H](O)[C@H](O)CC[C@@H](O)C[C@@H](O)CC(=O)O[C@H]1C)C[C@H](O)[C@H]2C(=O)O` [amphotericin B]: the “affinity for ergosterol compared to cholesterol” value in series [4] is on record as “approximately ten times greater affinity”.
`C[N+](C)(C)CCOP(=O)([O-])OC[C@H](O)CO` [glycerolphosphorylcholine]: in series [5] (general statement on ligands), the “effectiveness in reducing aminoglycoside toxicity” value was “less effective”.
Consider `O=P(O)(O)O[C@H]1[C@H](OP(=O)(O)O)[C@@H](OP(=O)(O)O)[C@H](OP(=O)(O)O)[C@@H](OP(=O)(O)O)[C@H]1OP(=O)(O)O` [inositol hexaphosphate], for which the “effectiveness in reducing the toxicity of streptomycin” value in series [5] is “very effective in reducing the toxicity of streptomycin”.
In the case of `C[N+](C)(C)CCOP(=O)(O)O` [phosphorylcholine], the “effectiveness in reducing aminoglycoside toxicity” value in [5] (general statement on ligands) is reported as “very effective in reducing aminoglycoside toxicity”. The “effectiveness in reducing the toxicity of streptomycin” value in series [5] was “very effective in reducing the toxicity of streptomycin”.
In the case of `NCCOP(=O)(O)O` [phosphorylethanolamine], the “effectiveness in reducing aminoglycoside toxicity” value in series [5] (general statement on ligands) was “less effective”.
As for Gentamycin, the LD₅₀ in series [6] was determined as 692 mg/kg.
In the case of Neomycin, the LD₅₀ in [6] is reported as 371 mg/kg.
deoxycholate [DOC]: in [7], the “Minimum Inhibitory Concentration of Amphotericin B, C. albicans” value is 5,000+ @g/m|. Further, in series [8] (setting [13]), the “Number of Clones, % of Control” value turned out to be 70.8%. Moreover, in series [8] (setting [13]), the “Number of Clones, Number of Colonies” value was determined as 68. Also, the “Size of Colonies, % of Control” value in series [8] (setting [13]) is listed as 92%. Besides, in series [8] (setting [13]), the “Size of Colonies, Mean Diameter” value was determined as 2.3. Also, the OD550nm in series [9] (concentration 1 @g/m|, 2% erythrocytes, 37°C, 20 hours) is reported as 0.03; in [9] (concentration 2 @g/m|, 2% erythrocytes, 37°C, 20 hours), 0.03; in [9] (concentration 2.5 @g/m|, 2% erythrocytes, 37°C, 20 hours), 0.03; in [9] (concentration 15 @g/m|, 2% erythrocytes, 37°C, 20 hours) it was 0.03; in [9] (concentration 30 @g/m|, 2% erythrocytes, 37°C, 20 hours), 0.03; in series [9] (concentration 60 @g/m|, 2% erythrocytes, 37°C, 20 hours), 0.06. Moreover, the OD550nm in [9] (concentration 125 @g/m|, 2% erythrocytes, 37°C, 20 hours) amounted to 0.23; in [9] (concentration 250 @g/m|, 2% erythrocytes, 37°C, 20 hours), 0.47. Further, the “Minimum Inhibitory Concentration of Amphotericin B, L cells” value in series [10] is listed as 250.0 @g/m|.
Regarding egg lysophosphatidylcholine, the “effectiveness in reducing aminoglycoside toxicity” value in series [5] (mouse, in vivo) was “very effective in reducing aminoglycoside toxicity”.
As to “polyethylene glycol-cholesterol [PEG-Chol]”, in [11], the “overt signs of toxicity” value is recorded as “No overt signs of toxicity”. Besides, in series [7], the “Minimum Inhibitory Concentration of Amphotericin B, C. albicans” value is reported as 25,000+ @g/m|. Moreover, in series [8], the “Number of Clones, Number of Colonies” value was 83 and the “Size of Colonies, Mean Diameter” value amounted to 2.5. Besides, in series [8] (mouse, l cells, 240 h), the “Number of Clones, % of Control” value stood at 86.5% and the “Size of Colonies, % of Control” value is 100%. In addition, the OD550nm in series [9] came out at 0.03. Further, the “Minimum Inhibitory Concentration of Amphotericin B, L cells” value in [12] was 500.0+ @g/m|.
